From patent publication US20070066682A1, “Arylalkylamine vanadium (V) salts for the treatment and/or prevention of Diabetes mellitus” (priority 2005, published 2007) come the findings set out here.

The subject of one data set is isolated rat adipocytes. The data set is described as follows: Glucose transport (2-deoxyglucose uptake) in isolated rat adipocytes. Type of data set: cell-based. As to conditions: for stimulation of glucose transport in the presence of semicarbazide: 1 mM semicarbazide; for stimulation of glucose transport in the presence of semicarbazide / stimulation of glucose transport (2-DG uptake): dihydrate; for stimulation of glucose transport (2-DG uptake): 45 min incubation. As for the experimental part: In order to determine whether salts formed by vanadate and benzylamine could produce an insulin mimetic effect, the effect of increasing concentrations of hexaquis(benzylammonium) decavanadate on glucose transport activity in isolated rat adipocytes was tested. […] In similar assays, the activity of hexaquis(benzylammonium) decavanadate, pentaquis(benzylammonium) decavanadate and tetraquis(benzylammonium) decavanadate on glucose transport activity in isolated rat adipocytes were analyzed.
To determine the possible insulin mimetic effect of certain vanadium arylalkylamines, the capacity of these compounds to enhance glucose transport in isolated rat adipocytes was tested. Adipose cells from Wistar rats were incubated for 45 minutes in basal conditions (Basal) or in the presence of 100 nM insulin (Ins), and different concentrations of. hexaquis(benzylammonium) decavanadate (B6V10) in the absence or in the presence of 1 mM semicarbazide (SCZ). Subsequently, 2-DG transport was measured over a 5 min. interval.
The effects of the three tested compounds (B6V10, B5V10 and B4V10) were compared. Adipose cells from Wistar rats were incubated for 45 minutes in basal conditions (Basal) or in the presence of 100 nM insulin (Ins), and different concentrations of. decavanadate (V10), hexaquis(benzylammonium) decavanadate (B6V10), pentaquis(benzylammonium) decavanadate (B5V10) or tetraquis(benzylammonium) decavanadate (B4V10) in the absence or in the presence of 1 mM semicarbazide (SCZ). 2-DG transport was measured over 5 min. intervals. […]
(§1) The effects of incubation with semicarbazide or phosphatidylinositol 3-kinase inhibitors were also investigated. Adipose cells were incubated with B6V10 (25 μM, 45 min) in the absence or presence of wortmannin (2 μM, 45 min), LY294002 (10 μM, 45 min) or semicarbazide (1 mM, 45 min) and thereafter 2-deoxyglucose uptake was determined during 5 min.

The subject of the next data set is protein kinase B. The experiment in a line: Protein kinase B phosphorylation in isolated rat adipocytes. Type of data set: cell-based. As for the experimental part: (§2) Isolated fat cells were disrupted for total membrane preparation by hypo-osmotic lysis in a 20 mM HES buffer and an antiprotease and antiphosphatase cocktail as reported by Abella et al. (2003, Diabetes 52: 1004-1013). Protein concentrations were determined by the Bradford method (Bradford, 1976, Anal. Biochem. 72: 248-254) with gamma-globulin as protein concentration standard. Immunoprecipitation and immunoblot assays were performed as previously described by Abella et al. (2004, Id.) with the use of a monoclonal antiphosphotyrosine antibody for the immunoprecipitation and an anti-insulin receptor antibody for immunoblotting, respectively. SDS-polyacrylamide gel electrophoresis was performed on membrane proteins following conventional procedures. Proteins were transferred to Immobilon and immunoblotting was performed as reported by Castello et al. (1994, J. Biol. Chem. 269: 5905-5912).
The mechanism of action of B6V10 was investigated in isolated rat adipocytes. Adipose cells from Wistar rats were incubated for different times in the presence of 25 μM hexaquis(benzylammonium) decavanadate (B6V10). Cells were also incubated in the presence of insulin (100 nM, 45 min), decavanadate (25 μM, 45 min) or semicarbazide (1 mM, 45 min). Subsequently, 2-deoxyglucose uptake (results shown in FIG. 7A), tyrosine phosphorylation of insulin receptor (FIG. 7B), phospho-Thr^308-protein kinase B (FIG. 7C) and phospho-Ser^473-protein kinase B (FIG. 7D) was measured. […] The phosphorylation of protein kinase B induced by B6V10 was parallel to activation of glucose transport (FIG. 7C and 7D).
as §1

The next data set relates to insulin receptor. The data set is described as follows: Tyrosine phosphorylation of insulin receptor in isolated rat adipocytes. Type of data set: cell-based. The conditions noted are these: 25 μM. As for the experimental part:
as §2
The mechanism of action of B6V10 was investigated in isolated rat adipocytes. Adipose cells from Wistar rats were incubated for different times in the presence of 25 μM hexaquis(benzylammonium) decavanadate (B6V10). […] Subsequently, 2-deoxyglucose uptake (results shown in FIG. 7A), tyrosine phosphorylation of insulin receptor (FIG. 7B), phospho-Thr^308-protein kinase B (FIG. 7C) and phospho-Ser^473-protein kinase B (FIG. 7D) was measured. […]

Another data set deals with adipocyte lipolysis. The experiment in a line: Adipocyte lipolysis. Type of data set: cell-based.
The test system of the next data set is diabetic rats. The experiment in a line: Plasma free fatty acids, triglycerides and cholesterol of diabetic rats. The data set is classed as in vivo, rat. As for the experimental part:
In glucose tolerance tests and in chronic treatments, circulating glucose concentrations were determined by a rapid glucose analyser (Accutrend® Sensor Comfort, Roche, Basel. Switzerland). Plasma insulin (IRI) concentration was determined by ELISA method using a kit obtained from Crystal Chem Inc. (Downers Grove, Ill.). Plasma triglycerides (Biosystems, Barcelona, Spain) and NEFAS (Wako Chemicals, Neuss, Germany) were determined with standard […] methods.

Data set [1] is described as follows: Tolerability in treated animals. The data set is classed as in vivo.
[2] abbreviates: isolated rat adipocytes, listed as hexaquis(benzylammonium) decavanadate.
[3] abbreviates: isolated rat adipocytes, FIG. 1.

“Also recorded” adds a separate entry of the source. A value given as a limit tells only on which side of the number the result lay.

As for “hexaquis(benzylammonium) decavanadate (V) dihydrate [Entry B6V10]”, the “stimulation of glucose transport at 25 μM compared with the combination of benzylamine and vanadate” value in the data set on isolated rat adipocytes (25 μM vs 100 μM benzylamine and 100 μM vanadate, rat adipocytes) is “greater stimulation of glucose transport than the combination of 100 μM benzylamine and 100 μM vanadate”. In the data set with isolated rat adipocytes (isolated rat adipocytes), the “stimulation of glucose transport in the presence of semicarbazide” value is on record as “completely blocked by semicarbazide; also recorded: blocked in the presence of semicarbazide” and the “stimulation of glucose transport (2-DG uptake)” value is “stimulated glucose transport in rat adipocytes in a concentration-dependent manner”. In addition, in the data set with isolated rat adipocytes (setting [2]), the “stimulation of glucose transport in the presence of semicarbazide” value was “completely blocked by semicarbazide; also recorded: this effect was inhibited” and the “stimulation of glucose transport (2-DG uptake)” value is on record as “pronounced stimulation on glucose transport”. Besides, in the data set on isolated rat adipocytes (setting [3]), the “concentration from which stimulation of glucose transport was perceptible” value was no less than 0.5 µM and the “concentration of maximal effect on glucose transport” value is 2.5 µM. The EC50 with isolated rat adipocytes (isolated rat adipocytes, FIG. 1, read-out: concentration of semi-maximal effect on glucose transport) is greater than 1 µM. Moreover, the “maximum effect on glucose transport compared with benzylamine and vanadate in combination” value in the data set on isolated rat adipocytes (isolated rat adipocytes, combination 100 μM sodium vanadate and 100 μM benzylamine (FIG. 1)) is “greater than that produced by the presence of benzylamine and vanadate in combination”. For the same substance, the “maximal effect on glucose transport as % of the maximal stimulation caused by insulin” value in the data set on isolated rat adipocytes (rat adipocytes, 100 nM insulin) is recorded as 85%. In the data set with protein kinase B (25 μM, rat adipocytes), the “protein kinase B phosphorylation” value is listed as “rapidly stimulated protein kinase B” and the “time at which protein kinase B phosphorylation was detectable” value is no more than 2.5 min. Moreover, the “protein kinase B phosphorylation in the presence of semicarbazide” value in the data set with protein kinase B (B6V10 25 μM, semicarbazide 1 mM, 45 min) is listed as “blocked by semicarbazide”. In the data set with insulin receptor, the “tyrosine phosphorylation of insulin receptors” value is given as “undetectable”. In the data set on adipocyte lipolysis, the adipocyte lipolysis result is reported as “inhibited adipocyte lipolysis”. For the same substance, the “plasma concentrations of free fatty acids, triglycerides and cholesterol” value in the data set on diabetic rats was “normalized the plasma concentrations of free fatty acids, triglycerides and cholesterol”. Besides, the toxicological side effects entry in data set [1] (at the doses used) is given as “did not show toxicological side effects”. Also, in data set [1] (treated animals), the hypoglycemia entry was “did not cause hypoglycemia”.
